Experimental data from patent US11390604B2 (Hoffmann-La Roche Inc., priority 2019, dated 2022).
Where a name gives a salt, the structure may show the parent alone.

Each compound was assayed on Acinetobacter baumannii ATCC 17961 (assay: Antimicrobial susceptibility testing: 90% growth inhibitory concentration (IC90) determination). Settings: ATCC17961, Acinetobacter baumannii ATCC 17961, Iso-Sensitest broth, read-out: ATCC 17961 IC90.
Assay type: cell-based
Outline: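 Broth microdilution in Iso-Sensitest medium, twofold series (e.g. 50 to 0.097 μM final), ~5×10^5 CFU/ml inoculum, 35±2 °C. OD600 read every 20 min over 16 h. IC90 derived from growth inhibition during logarithmic phase.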

Row | IC90 [nM] | Structure (SMILES)
1 | 233 | C#CCn1cc(-c2cnc(C(=O)Nc3ccc(C(=O)N4CCN(C(=O)[C@H]5CCNC5)CC4)c(Cl)c3)n2C)c(C(F)(F)F)n1 [Example 37, N-[3-chloro-4-[4-[(3S)-pyrrolidine-3-carbonyl]piperazine-1-carbonyl]phenyl]-1-methyl-5-[1-prop-2-ynyl-3-(trifluoromethyl)pyrazol-4-yl]imidazole-2-carboxamide hydrochloride]
2 | 801 | C#CCn1cc(-c2cnc(C(=O)Nc3ccc(C(N)=O)c(Cl)c3)n2C)c(C(F)(F)F)n1 [Example 41, N-(4-Carbamoyl-3-chlorophenyl)-1-methyl-5-(1-(prop-2-yn-1-yl)-3-(trifluoromethyl)-11-pyrazol-4-yl)-1H-imidazole-2-carboxamide]
3 | 556 | C#CCn1cc(-c2cnc(C(=O)Nc3ccc(C(=O)NCCCN)c(Cl)c3)n2C)c(C(F)(F)F)n1 [Example 44, N-(4-((3-aminopropyl)carbamoyl)-3-chlorophenyl)-1-methyl-5-(1-(prop-2-yn-1-yl)-3-(trifluoromethyl)-1H-pyrazol-4-yl)-1H-imidazole-2-carboxamide 2,2,2-trifluoroacetate]
4 | 262 | C#CCn1cc(-c2cnc(C(=O)Nc3ccc(C(=O)NCCOC[C@@H](C)N)c(Cl)c3)n2C)c(C(F)(F)F)n1 [Example 45, (R)-N-(4-((2-(2-aminopropoxy)ethyl)carbamoyl)-3-chlorophenyl)-1-methyl-5-(1-(prop-2-yn-1-yl)-3-(trifluoromethyl)-1H-pyrazol-4-yl)-1H-imidazole-2-carboxamide 2,2,2-trifluoroacetate]
5 | 263 | C#CCn1cc(-c2cnc(C(=O)Nc3ccc(C(=O)NCCOCC(C)(C)N)c(Cl)c3)n2C)c(C(F)(F)F)n1 [Example 46, N-(4-((2-(2-amino-2-methylpropoxy)ethyl)carbamoyl)-3-chlorophenyl)-1-methyl-5-(1-(prop-2-yn-1-yl)-3-(trifluoromethyl)-1H-pyrazol-4-yl)-1H-imidazole-2-carboxamide 2,2,2-trifluoroacetate]
6 | 231 | C#CCn1cc(-c2cnc(C(=O)Nc3ccc(C(=O)NCCOCCN)c(Cl)c3)n2C)c(C(F)(F)F)n1 [Example 48, N-(4-((2-(2-aminoethoxy)ethyl)carbamoyl)-3-chlorophenyl)-1-methyl-5-(1-(prop-2-yn-1-yl)-3-(trifluoromethyl)-1H-pyrazol-4-yl)-1H-imidazole-2-carboxamide trifluoroacetate]
7 | 122 | C#CCn1cc(-c2cnc(C(=O)Nc3ccc(C(=O)N4CCN(C(=O)NC5CNC5)CC4)c(Cl)c3)n2C)c(C(F)(F)F)n1 [Example 51, N-(Azetidin-3-yl)-4-(2-chloro-4-(1-methyl-5-(1-(prop-2-yn-1-yl)-3-(trifluoromethyl)-1H-pyrazol-4-yl)-1H-imidazole-2-carboxamido)benzoyl)piperazine-1-carboxamide Hydrochloride]
8 | 161 | C#CCn1cc(-c2cnc(C(=O)Nc3ccc(C(=O)N4CCN(C(=O)N[C@H]5CCNC5)CC4)c(Cl)c3)n2C)c(C(F)(F)F)n1 [Example 53, (S)-4-(2-chloro-4-(1-methyl-5-[1-(prop-2-yn-1-yl)-3-(trifluoromethyl)-1H-pyrazol-4-yl)-1H-imidazole-2-carboxamido)benzoyl)-N-(pyrrolidin-3-yl)piperazine-1-carboxamide hydrochloride]
9 | 1510 | Cn1cc(-c2cnc(C(=O)Nc3ccc(C(=O)N4CCN(C(=O)C5(O)CCNCC5)CC4)c(Cl)c3)n2C)c(C(F)(F)F)n1 [Example 56, N-[3-Chloro-4-[4-(4-hydroxypiperidine-4-carbonyl)piperazine-1-carbonyl]phenyl]-1-methyl-5-[1-methyl-3-(trifluoromethyl)pyrazol-4-yl]imidazole-2-carboxamide 2,2,2-trifluoroacetate]

More lines, now with the values behind:

Row | Structure (SMILES) | IC90 [nM]
10 | C#CCn1cc(-c2cnc(C(=O)Nc3ccc(C(=O)NC[C@@H]4CNC[C@@H]4O)c(Cl)c3)n2C)c(C(F)(F)F)n1 [Example 33, N-(3-chloro-4-((((3S,4R)-4-hydroxypyrrolidin-3-yl)methyl)carbamoyl)phenyl)-1-methyl-5-(1-(prop-2-yn-1-yl)-3-(trifluoromethyl)-1H-pyrazol-4-yl)-1H-imidazole-2-carboxamide hydrochloride] | 925
11 | C#CCn1cc(-c2cnc(C(=O)Nc3ccc(C(=O)N4CCN(C(=O)OC(C)(C)C)CC4)c(Cl)c3)n2C)c(C(F)(F)F)n1 [Example 34, tert-butyl 4-[2-chloro-4-[[1-methyl-5-[1-prop-2-ynyl-3-(trifluoromethyl)pyrazol-4-yl]imidazole-2-carbonyl]amino]benzoyl]piperazine-1-carboxylate] | 1060
12 | C#CCn1cc(-c2cnc(C(=O)Nc3ccc(C(=O)N4CCN(C(=O)[C@@H]5C[C@@H](O)CN5)CC4)c(Cl)c3)n2C)c(C(F)(F)F)n1 [Example 36, N-[3-Chloro-4-[4-[(2S,4R)-4-hydroxypyrrolidine-2-carbonyl]piperazine-1-carbonyl]phenyl]-1-methyl-5-[1-prop-2-ynyl-3-(trifluoromethyl)pyrazol-4-yl]imidazole-2-carboxamide hydrochloride] | 286
13 | C#CCn1cc(-c2cnc(C(=O)Nc3ccc(C(=O)N4CCN(C(=O)[C@H]5CCCN5)CC4)c(Cl)c3)n2C)c(C(F)(F)F)n1 [Example 38, N-[3-chloro-4-[4-[(2R)-pyrrolidine-2-carbonyl]piperazine-1-carbonyl]phenyl]-1-methyl-5-[1-prop-2-ynyl-3-(trifluoromethyl)pyrazol-4-yl]imidazole-2-carboxamide hydrochloride] | 275
14 | C#CCn1cc(-c2cnc(C(=O)Nc3ccc(C(=O)N4CCN(C(=O)C5(O)CCNCC5)CC4)c(Cl)c3)n2C)c(C(F)(F)F)n1 [Example 39, N-[3-chloro-4-[4-(4-hydroxypiperidine-4-carbonyl)piperazine-1-carbonyl]phenyl]-1-methyl-5-[1-prop-2-ynyl-3-(trifluoromethyl)pyrazol-4-yl]imidazole-2-carboxamide hydrochloride] | 257
15 | C#CCn1cc(-c2cnc(C(=O)Nc3ccc(C(=O)N4CCN(C(=O)[C@H]5CCNC[C@H]5O)CC4)c(Cl)c3)n2C)c(C(F)(F)F)n1 [Example 40, N-(3-chloro-4-(4-((3S,4S)-3-hydroxypiperidine-4-carbonyl)piperazine-1-carbonyl)phenyl)-1-methyl-5-(1-(prop-2-yn-1-yl)-3-(trifluoromethyl)-1H-pyrazol-4-yl)-1H-imidazole-2-carboxamide hydrochloride] | 241
16 | C#CCn1cc(-c2cnc(C(=O)Nc3ccc(C(=O)N(C)C)c(Cl)c3)n2C)c(C(F)(F)F)n1 [Example 42, N-(3-chloro-4-(dimethylcarbamoyl)phenyl)-1-methyl-5-(1-(prop-2-yn-1-yl)-3-(trifluoromethyl)-1H-pyrazol-4-yl)-1H-imidazole-2-carboxamide] | 241
17 | C#CCn1cc(-c2cnc(C(=O)Nc3ccc(C(=O)NC)c(Cl)c3)n2C)c(C(F)(F)F)n1 [Example 43, N-(3-chloro-4-(methylcarbamoyl)phenyl)-1-methyl-5-(1-(prop-2-yn-1-yl)-3-(trifluoromethyl)-1H-pyrazol-4-yl)-1H-imidazole-2-carboxamide] | 478
18 | C#CCn1cc(-c2cnc(C(=O)Nc3ccc(C(=O)NCCOC[C@H](C)N)c(Cl)c3)n2C)c(C(F)(F)F)n1 [Example 47, (S)-N-(4-((2-(2-aminopropoxy)ethyl)carbamoyl)-3-chlorophenyl)-1-methyl-5-(1-(prop-2-yn-1-yl)-3-(trifluoromethyl)-1H-pyrazol-4-yl)-1H-imidazole-2-carboxamide 2,2,2-trifluoroacetate] | 428
19 | Cc1cc(NC(=O)c2ncc(-c3c[nH]nc3C(F)(F)F)n2C)ccc1C(=O)NCCCCCCN [Example 49, N-(4-((6-aminohexyl)carbamoyl)-3-methylphenyl)-1-methyl-5-(3-(trifluoromethyl)-1H-pyrazol-4-yl)-1H-imidazole-2-carboxamide hydrochloride] | 2830
20 | Cc1cc(NC(=O)c2ncc(-c3c[nH]nc3C(F)(F)F)n2C)ccc1C(=O)NCCCCCN [Example 50, N-(4-((5-aminopentyl)carbamoyl)-3-methylphenyl)-1-methyl-5-(3-(trifluoromethyl)-1H-pyrazol-4-yl)-1H-imidazole-2-carboxamide hydrochloride] | 4680
21 | C#CCn1cc(-c2cnc(C(=O)Nc3ccc(C(=O)N4CCN(C(=O)NCC5(O)CNC5)CC4)c(Cl)c3)n2C)c(C(F)(F)F)n1 [Example 52, 4-(2-chloro-4-(1-methyl-5-(1-(prop-2-yn-1-yl)-3-(trifluoromethyl)-1H-pyrazol-4-yl)-1H-imidazole-2-carboxamido)benzoyl)-N-((3-hydroxyazetidin-3-yl)methyl)piperazine-1-carboxamide hydrochloride] | 192
22 | Cn1c(-c2cn(C3CC3)nc2C(F)(F)F)cnc1C(=O)Nc1ccc(C(=O)N2CCN(C(=O)C3CCNCC3)CC2)c(Cl)c1 [Example 54, N-(3-Chloro-4-(4-(piperidine-4-carbonyl)piperazine-1-carbonyl)phenyl)-5-(1-cyclopropyl-3-(trifluoromethyl)-1H-pyrazol-4-yl)-1-methyl-1H-imidazole-2-carboxamide hydrochloride] | 335
23 | Cn1cc(-c2cnc(C(=O)Nc3ccc(C(=O)N4CCN(C(=O)[C@@H]5C[C@@H](O)CN5)CC4)c(Cl)c3)n2C)c(C(F)(F)F)n1 [Example 55, N-[3-Chloro-4-[4-[(2S,4R)-4-hydroxypyrrolidine-2-carbonyl]piperazine-1-carbonyl]phenyl]-1-methyl-5-[1-methyl-3-(trifluoromethyl)pyrazol-4-yl]imidazole-2-carboxamide] | 1940

Same assay, conditions: Acinetobacter baumannii, ATCC17961, read-out: ATCC 17961 IC90, Acinetobacter baumannii ATCC 17961, Iso-Sensitest broth

Row | Structure (SMILES) | IC90 [nM]
24 | Cn1c(-c2c[nH]nc2C(F)(F)F)cnc1C(=O)Nc1ccc(C(=O)N2CCNCC2)c(Cl)c1 [Example 35, N-[3-chloro-4-(piperazine-1-carbonyl)phenyl]-1-methyl-5-[3-(trifluoromethyl)-1H-pyrazol-4-yl]imidazole-2-carboxamide hydrochloride] | 3700
